Measured values from publication PMC10292217, “Gene-nutrient interactions that impact magnesium homeostasis increase risk for neural tube defects in mice exposed to dolutegravir” (Frontiers in Cell and Developmental Biology, 2023).
Read-outs that look alike come from different tables or passages of the source. Marks after values point to notes of the source that are not given here.

Key:
C57BL/6J mice [1] = system: C57BL/6J mice; design: method as in Mohan et al., 2021; details: ref Mohan et al., 2021, cited from earlier work
hESC morphogenesis model = system: hESC morphogenesis model; design: method as in Kirkwood-Johnson et al., 2021; details: ref Kirkwood-Johnson et al., 2021; cited from earlier work
Whole rat embryos = system: Whole rat embryos; design: method as in Posobiec et al., 2021; details: exposure GD 9-11; concentrations approx. 2 times plasma concentration at MRHD; ref Posobiec et al., 2021; cited from earlier work
C57BL/6J mice [2] = assay: DTG-NTD susceptibility, embryo phenotyping on GD 9.5, C57BL/6J dams; assay type: in vivo, mouse
From the text: (§1) Breeding colonies and experimental mice were housed in Thoren micro-isolator cages with autoclaved corncob bedding and maintained on a 12-h light-dark cycle in climate-controlled AAALAC-accredited animal facilities at Creighton University. Mice were given ad libitum access to autoclaved water and pelleted irradiated rodent chow. For timed matings, nulliparous female mice were placed with a male overnight (1 male:2-3 females). The presence of a vaginal plug the next morning was considered GD 0.5. Plugged females were weighed, placed into a separate cage, and randomly assigned to a treatment group. All animal procedures were performed in accordance with the Public Health Service (PHS) policy on Humane Care and Use of Laboratory Animals and approved by the Creighton University Institutional Animal Care and Use Committee (IACUC).
(§2) Dolutegravir (CAS 1051375-16-6, GSK1349572) was purchased from MedKoo Biosciences (Morrisville, NC). Pregnant mice were dosed with vehicle (dimethylsulfoxide: Solutol®: 50 mM N-methylglucamine in 3% mannitol [1:1:8, v:w:v]) ([Moss et al., 2015]) or DTG (500 mg/kg or 750 mg/kg) by daily oral gavage beginning on GD 0.5 and continuing until the day of sacrifice (GD 9.5). All treatments were administered in a volume of 0.1 mL/10 g bodyweight (bwt).
(§3) The SWV and LM/Bc breeding colonies have been maintained on Envigo Rodent Chow #8904 (a soy protein-based irradiated diet) for >20 years. C3H/HeJ and C57BL/6J mice (6–10 weeks old) were immediately placed on Envigo #8904 upon arrival at Creighton University and were maintained on this diet for a minimum of 1 month prior to analysis of basal plasma and urine cations. The National Research Council (NRC) estimate for the minimum Mg^2+ requirement in adult mice is […] of diet (0.05%). Magnesium in standard rodent diets ranges between […]; the Envigo #8904 soy diet contains .3% Mg^2+ by weight ([…] the NRC requirement) and was therefore considered a ‘high’ Mg^2+ diet. Sources of Mg^2+ in the soy diet include magnesium oxide (∼20%) and Mg^2+ found naturally in grain ingredients (∼80%); it was therefore not possible to remove Mg^2+ to create a soy-based version that was Mg^2+ deficient. To test the hypothesis that low maternal plasma Mg^2+ prior to conception would increase susceptibility to DTG-induced NTDs, it was necessary to switch to casein-based purified ingredient diets with defined levels of Mg^2+ added back. The following casein-based purified ingredient diets were selected as experimental diets: TD.120,574 high Mg^2+ diet (.3% Mg^2+ oxide added to match the .3% high Mg^2+ soy-based diet); TD.98341 control Mg^2+ diet with 0.05% Mg oxide added back to match the NRC requirement; and TD.93106 Mg^2+-deficient diet (<.003%, no Mg^2+ added back). The purified casein diets met or exceeded the NRC requirements for all other minerals and vitamins, including folic acid (Supplementary Table S1: Diet Comparison). Thus, the 4 experimental diets were as follows: 1) high Mg^2+ (.3%) soy diet; 2) high Mg^2+ ([…]) casein diet; 3) control Mg^2+ (.05%) casein diet; and 4) deficient Mg^2+ (<.003%) casein diet. […] Our initial DTG teratology studies were performed in mice on the high Mg^2+ soy diet. However, our objective in the second set of experiments was to reduce pre-conception plasma Mg^2+ levels prior to DTG exposure. To accomplish this objective, weaned female mice were placed on either the high Mg^2+ casein diet or one of the 2 casein-based experimental diets with reduced Mg^2+ (control or deficient) for a minimum of 2 weeks. After this minimum period of acclimation to the experimental casein-based diets, blood and urine samples were collected for Inductively Coupled Plasma Mass Spectrometry (ICP-MS) determination of Mg^2+ (and other cations).
(§4) Pregnant dams were anesthetized with isoflurane and sacrificed by cervical dislocation on GD 9.5. […]

LM/Bc mice = assay: DTG-NTD susceptibility, embryo phenotyping on GD 9.5, LM/Bc dams; assay type: in vivo, mouse
From the text: as §1, §2, §3, §4

FOLR1 = system: FOLR1; design: method as in Cabrera et al., 2019; details: human placental trophoblast cells; ref Cabrera et al., 2019; cited from earlier work
[3] = high Mg2+ (0.3%) soy diet, DTG 750 mg/kg/d oral GD 0.5-GD 9.5, average % (SD)
[4] = high Mg2+ (0.3%) soy diet, DTG 750 mg/kg/d oral GD 0.5-GD 9.5, mean (SD)
[5] = high Mg2+ (0.3%) soy diet, DTG 750 mg/kg/d oral GD 0.5-GD 9.5, mean (SD) per litter
[6] = control Mg2+ (0.05%) casein diet, DTG500
[7] = control Mg2+ (0.05%) casein diet, DTG750
[8] = high Mg2+ (0.3%) casein diet, DTG750
[9] = high Mg2+ soy diet, DTG500, n = 7 litters

Compound: C[C@@H]1CCO[C@H]2Cn3cc(C(=O)NCc4ccc(F)cc4F)c(=O)c(O)c3C(=O)N12 [DTG, Dolutegravir]
- NTD-affected litters (C57BL/6J mice [1]; 2.5 mg/kg/d oral DTG co-formulated with TDF and FTC from GD 0.5, folate-sufficient diet, 5/150 litters): 3.3%
- NTDs observed (C57BL/6J mice [1]; 5x higher dose, n = 111 litters): no NTDs were observed
- effect on 3D morphogenesis (hESC morphogenesis model): altered growth and expression of genes involved in body patterning
- developmental toxicity or NTDs (Whole rat embryos): no developmental toxicity or NTDs were observed
- Affected litters % (C57BL/6J mice [2]; high Mg2+ (0.3%) soy diet, DTG 750 mg/kg/d oral GD 0.5-GD 9.5): 0.0%
- Dev delay/implants, index value (C57BL/6J mice [2]; [3]): 1.9% (4.15)
- NTDs/embryos, index value (C57BL/6J mice [2]; [3]): 0.0% (0.00)
- NTDs/implants, index value (C57BL/6J mice [2]; [3]): 0.0% (0.00)
- Resorptions/implants, index value (C57BL/6J mice [2]; [3]): 5.3% (9.30)
- Implants per litter (C57BL/6J mice [2]; [4]): 9.80 (1.48)
- Resorptions per litter (C57BL/6J mice [2]; [4]): 0.50 (0.85)
- Dev. delayed (C57BL/6J mice [2]; [5]): 0.20 (0.42)
- NTDs (C57BL/6J mice [2]; [5]): 0.00 (0.00)
- Total viable embryos (C57BL/6J mice [2]; [5]): 9.30 (1.77)
- NTDs observed (C57BL/6J mice [2]; high Mg2+ soy diet, DTG750, n = 10 litters): No NTDs
- NTD-affected litters (LM/Bc mice; [6]): 62%
- NTD-affected litters / litters examined (LM/Bc mice; [6]): 8/13
- exencephalic embryos per litter (LM/Bc mice; [6]): 1 to 5
- total NTDs (LM/Bc mice; control Mg2+ (0.05%) casein diet, DTG500, of 116 implants): 19
- NTD-affected litters (LM/Bc mice; [7]): 85%
- NTD-affected litters / litters examined (LM/Bc mice; [7]): 11/13
- exencephalic embryos per litter (LM/Bc mice; [7]): 1 to 6
- total NTDs (LM/Bc mice; control Mg2+ (0.05%) casein diet, DTG750, of 105 implants): 33
- NTD-affected litters (LM/Bc mice; [8]): 19%
- exencephalic embryos per affected litter (LM/Bc mice; [8]): 1
- mean rate NTDs/litter (LM/Bc mice; [8]): 2%
- NTD-affected litters / litters examined (LM/Bc mice; high Mg2+ (0.3%) casein diet, DTG750, 90 implants total): 3/16
- Dev delay/implants, index value (LM/Bc mice; [3]): 8.1% (17.76)
- NTDs/embryos, index value (LM/Bc mice; [3]): 20.9% (23.65)^**
- NTDs/implants, index value (LM/Bc mice; [3]): 17.7% (20.63)^**
- Resorptions/implants, index value (LM/Bc mice; [3]): 11.5% (15.75)
- Implants per litter (LM/Bc mice; [4]): 8.74 (2.47)
- Resorptions per litter (LM/Bc mice; [4]): 0.95 (1.27)
- Dev. delayed (LM/Bc mice; [5]): 0.58 (0.96)
- NTDs (LM/Bc mice; [5]): 1.47 (1.74)^**
- Total viable embryos (LM/Bc mice; [5]): 7.79 (2.76)
- NTDs observed (LM/Bc mice; high Mg2+ soy diet, DTG 500 mg/kg/d (DTG500), n = 7 litters): No NTDs
- developmental delays (LM/Bc mice; [9]): no developmental delays
- implants (total) (LM/Bc mice; [9]): 71
- resorptions (total) (LM/Bc mice; [9]): 9
- viable embryos developmentally normal (total) (LM/Bc mice; [9]): 62
- NTD-affected litters / litters examined (LM/Bc mice; high Mg2+ soy diet, DTG750): 12/19
- NTDs/affected litter (LM/Bc mice; high Mg2+ soy diet, DTG750): 1–6
- total pups with exencephaly (LM/Bc mice; high Mg2+ soy diet, DTG750, out of 166 total implants): 28
- FOLR1-mediated uptake of folic acid (FOLR1): partially inhibited
